Assay results published in patent publication US4328334A, “11-Aza-10-deoxo-10-dihydroerythromycin A and derivatives thereof as well as a process for their preparation” (PLIVA Pharmaceutical and Chemical Works, priority 1979, dated 1982).
Converted amounts (≈) assume the structure as drawn. Where two headings read alike, the source gives them in different places.

Experiments:
[1] = tested on: Streptococcus faecalis ATCC 8043; assay: in vitro minimum inhibitory concentration, Streptococcus faecalis ATCC 8043; assay type: cell-based; settings: Enterococcus faecalis
[2] = tested on: Staphylococcus epidermidis ATCC 12228; assay: in vitro minimum inhibitory concentration, Staphylococcus epidermidis ATCC 12228; assay type: cell-based
[3] = tested on: Staphylococcus aureus ATCC 6538-P; assay: in vitro minimum inhibitory concentration, Staphylococcus aureus ATCC 6538-P; assay type: cell-based
[4] = tested on: Micrococcus flavus ATCC 10240; assay: in vitro minimum inhibitory concentration, Micrococcus flavus ATCC 10240; assay type: cell-based
Sarcina lutea ATCC 9341 = assay: in vitro minimum inhibitory concentration, Sarcina lutea ATCC 9341; assay type: cell-based; settings: Micrococcus luteus, ATCC9341, read-out: minimum inhibitory concentrations (MIC)
[5] = tested on: Bacillus cereus var. mycoides ATCC 11778; assay: microbe, parasite or virus in culture; assay type: cell-based; settings: ATCC11778, read-out: minimum inhibitory concentrations (MIC)
[6] = tested on: Bacillus subtilis ATCC 6633; assay: in vitro minimum inhibitory concentration, Bacillus subtilis ATCC 6633; assay type: cell-based
[7] = pKb in dimethyl formamide-water; assay type: physicochemical; settings: dmf (66% v/v)-water; dimethyl formamide (66% v/v)-water
[8] = tested on: Staphylococcus aureus ATCC 6538-P; assay: stability in acid medium: MIC after exposure to 1 N HCl; assay type: cell-based; settings: for MIC: ATCC6538, pH 1.2, Staphylococcus aureus ATCC 6538-P
[9] = tested on: Corynebacterium xerosis NCTC 9755; assay: in vitro minimum inhibitory concentration, Corynebacterium xerosis NCTC 9755; assay type: cell-based
[10] = tested on: Brucella bronchiseptica ATCC 4617; assay: microbe, parasite or virus in culture; assay type: cell-based; settings: Bordetella bronchiseptica, ATCC4617, read-out: minimum inhibitory concentrations (MIC)
[11] = tested on: Pseudomonas aeruginosa NCTC 10490; assay: in vitro minimum inhibitory concentration, Pseudomonas aeruginosa NCTC 10490; assay type: cell-based
[12] = tested on: Klebsiella pneumoniae ATCC 10031; assay: in vitro minimum inhibitory concentration, Klebsiella pneumoniae ATCC 10031; assay type: cell-based
[13] = tested on: Escherichia coli ATCC 10536; assay: in vitro minimum inhibitory concentration, Escherichia coli ATCC 10536; assay type: cell-based; settings: ATCC10536, read-out: minimum inhibitory concentrations (MIC)
[14] = tested on: Shigella flexneri II-1819/C; assay: in vitro minimum inhibitory concentration, Shigella flexneri II-1819/C; assay type: cell-based; settings: II1819/C, read-out: minimum inhibitory concentrations (MIC)
Description: In order to examine the antibacterial action, some new compounds were tested in vitro on a series of gram-positive and gram-negative micro-organisms. The results are shown in Table 1 as minimum inhibitory concentrations (MIC) in mcg/ml in comparision with erythromycin A erythromycin A oxime.

Salmonella panama = assay: in vitro minimum inhibitory concentration, Salmonella panama; assay type: cell-based; settings: Salmonella enterica, read-out: minimum inhibitory concentrations (MIC)
[15] = acute i.v. toxicity in albino mice (Litchfield-Wilcoxon); settings: mouse, in vivo, iv; acute i.v., albino mice
[16] = ATCC8043, in vitro, Streptococcus faecalis ATCC 8043, read-out: minimum inhibitory concentrations (MIC)
[17] = ATCC12228, in vitro, Staphylococcus epidermidis ATCC 12228, read-out: minimum inhibitory concentrations (MIC)
[18] = ATCC6538, in vitro, Staphylococcus aureus ATCC 6538-P, read-out: minimum inhibitory concentrations (MIC)
[19] = ATCC10240, in vitro, Micrococcus flavus ATCC 10240, read-out: minimum inhibitory concentrations (MIC)
[20] = ATCC6633, in vitro, Bacillus subtilis ATCC 6633, read-out: minimum inhibitory concentrations (MIC)
[21] = ATCC8043, read-out: minimum inhibitory concentrations (MIC)
[22] = Micrococcus flavus, ATCC10240, read-out: minimum inhibitory concentrations (MIC)
[23] = 1 N HCl, pH 1.2, 30 minutes to 6 hours
[24] = exposure time 1/2 hour, 1 N HCl

SMILES	MIC [1, 16] [µg/mL]	MIC [2, 17] [µg/mL]	MIC [3, 18] [µg/mL]	MIC [4, 19] [µg/mL]	MIC (Sarcina lutea ATCC 9341) [µg/mL]	MIC [5] [µg/mL]	MIC [6, 20] [µg/mL]	pKa [7]	MIC ([8]; exposure time 0 hours) [µg/mL]	MIC [8, 24] [µg/mL]	MIC ([8]; exposure time 1 hour, 1 N HCl) [µg/mL]	MIC ([8]; exposure time 2 hours, 1 N HCl) [µg/mL]	MIC ([8]; exposure time 3 hours, 1 N HCl) [µg/mL]	MIC ([8]; exposure time 6 hours, 1 N HCl) [µg/mL]	also measured
CC[C@H]1OC(=O)[C@H](C)[C@@H](O[C@H]2C[C@@](C)(OC)[C@@H](OC(C)=O)[C@H](C)O2)[C@H](C)[C@@H](O[C@@H]2O[C@H](C)C[C@H](N(C)C)[C@H]2OC(C)=O)[C@](C)(O)C[C@@H](C)CN(C(C)=O)[C@H](C)[C@@H](O)[C@]1(C)O [Compound III, 2',4"-N-triacetyl-11-aza-10-deoxo-10-dihydroerythromycin A]	125 (≈ 145 µM)	200 (≈ 232 µM)	150 (≈ 174 µM)	50 (≈ 58.1 µM)	10 (≈ 11.6 µM)	200 (≈ 232 µM)	175 (≈ 203 µM)								
CC[C@H]1OC(=O)[C@H](C)[C@@H](O[C@H]2C[C@@](C)(OC)[C@@H](OC(C)=O)[C@H](C)O2)[C@H](C)[C@@H](O[C@@H]2O[C@H](C)C[C@H](N(C)C)[C@H]2OC(C)=O)[C@](C)(O)C[C@@H](C)CN(C(C)=O)[C@H](C)[C@@H](OC(C)=O)[C@]1(C)O [Compound IV, 2',4",13,N-tetraacetyl-11-aza-10-deoxo-10-dihydroerythromycin A]		200 (≈ 221 µM)	200 (≈ 221 µM)		10 (≈ 11.1 µM)	175 (≈ 194 µM)	200 (≈ 221 µM)								MIC [1, 21]: 175 µg/mL (≈ 194 µM); MIC [4, 22]: 175 µg/mL (≈ 194 µM)
CCC(=O)N1C[C@H](C)C[C@@](C)(O)[C@H](O[C@@H]2O[C@H](C)C[C@H](N(C)C)[C@H]2O)[C@@H](C)[C@H](O[C@H]2C[C@@](C)(OC)[C@@H](O)[C@H](C)O2)[C@@H](C)C(=O)O[C@H](CC)[C@@](C)(O)[C@H](O)[C@H]1C [Compound V, N-propionyl-11-aza-10-deoxo-10-dihydroerythroycin A]								8.6							
CC[C@H]1OC(=O)[C@H](C)[C@@H](O[C@H]2C[C@@](C)(OC)[C@@H](O)[C@H](C)O2)[C@H](C)[C@@H](O[C@@H]2O[C@H](C)C[C@H](N(C)C)[C@H]2O)[C@](C)(O)C[C@@H](C)CN[C@H](C)[C@H]2OC(=O)O[C@@]21C [Compound VI, 11-aza-10-deoxo-10-dihydroerythromycin A cyclic 13,14-carbonate]	0.05 (≈ 0.0657 µM)	2.5 (≈ 3.29 µM)	1 (≈ 1.31 µM)	0.5 (≈ 0.657 µM)	0.1 (≈ 0.131 µM)	2.5 (≈ 3.29 µM)	0.5 (≈ 0.657 µM)		1 (≈ 1.31 µM)	1 (≈ 1.31 µM)	1 (≈ 1.31 µM)	2.5 (≈ 3.29 µM)	2.5 (≈ 3.29 µM)	2.5 (≈ 3.29 µM)	stability in acid medium compared with erythromycin A [8, 23]: significantly more stable than erythromycin A; stability in acid medium compared with erythromycin A oxime [8, 23]: within the range of that of the starting antibioticum erythromycin A oxime
CC[C@H]1OC(=O)[C@H](C)[C@@H](O[C@H]2C[C@@](C)(OC)[C@@H](O)[C@H](C)O2)[C@H](C)[C@@H](O[C@@H]2O[C@H](C)C[C@H](N(C)C)[C@H]2O)[C@](C)(O)C[C@@H](C)CN(S(=O)(=O)c2ccc(C)cc2)[C@H](C)[C@@H](O)[C@]1(C)O [Compound VIII, N-(4-methyl-benzenesulfonyl)-11-aza-10-deoxo-10-dihydroerythromycin A]	20 (≈ 22.5 µM)	100 (≈ 112 µM)	100 (≈ 112 µM)	20 (≈ 22.5 µM)	50 (≈ 56.2 µM)	50 (≈ 56.2 µM)	100 (≈ 112 µM)								
CC[C@H]1OC(=O)[C@H](C)[C@@H](O[C@H]2C[C@@](C)(OC)[C@@H](O)[C@H](C)O2)[C@H](C)[C@@H](O[C@@H]2O[C@H](C)C[C@H](N(C)C)[C@H]2O)[C@](C)(O)C[C@@H](C)C(=O)[C@H](C)[C@@H](O)[C@]1(C)O [E, erythromycin A]					0.05 (≈ 0.0681 µM)	0.1 (≈ 0.136 µM)			0.5 (≈ 0.681 µM)	7.5 (≈ 10.2 µM)	10 (≈ 13.6 µM)	10 (≈ 13.6 µM)	10 (≈ 13.6 µM)	20 (≈ 27.3 µM)	MIC [1, 21]: 0.05 µg/mL (≈ 0.0681 µM); MIC ([2]; Staphylococcus epidermidis, ATCC12228, read-out: minimum inhibitory concentrations (MIC)): 0.1 µg/mL (≈ 0.136 µM); MIC ([3]; Staphylococcus aureus, ATCC6538, read-out: minimum inhibitory concentrations (MIC)): 0.5 µg/mL (≈ 0.681 µM); MIC [4, 22]: 0.05 µg/mL (≈ 0.0681 µM); MIC ([6]; Bacillus subtilis, ATCC6633, read-out: minimum inhibitory concentrations (MIC)): 0.05 µg/mL (≈ 0.0681 µM); MIC ([9]; Corynebacterium xerosis, NCTC9755, read-out: minimum inhibitory concentrations (MIC)): 0.1 µg/mL (≈ 0.136 µM); MIC [10]: 1 µg/mL (≈ 1.36 µM); MIC ([11]; Pseudomonas aeruginosa, NCTC10490, read-out: minimum inhibitory concentrations (MIC)): 50 µg/mL (≈ 68.1 µM); MIC ([12]; Klebsiella pneumoniae, ATCC10031, read-out: minimum inhibitory concentrations (MIC)): 5 µg/mL (≈ 6.81 µM); MIC [13]: 25 µg/mL (≈ 34.1 µM); MIC [14]: 25 µg/mL (≈ 34.1 µM); MIC (Salmonella panama): 50 µg/mL (≈ 68.1 µM)
CC[C@H]1OC(=O)[C@H](C)[C@@H](O[C@H]2C[C@@](C)(OC)[C@@H](O)[C@H](C)O2)[C@H](C)[C@@H](O[C@@H]2O[C@H](C)C[C@H](N(C)C)[C@H]2O)[C@](C)(O)C[C@@H](C)C(=NO)[C@H](C)[C@@H](O)[C@]1(C)O [EO, erythromycin A oxime, reference compound]	0.05 (≈ 0.0668 µM)	0.1 (≈ 0.134 µM)	0.5 (≈ 0.668 µM)	0.1 (≈ 0.134 µM)	0.05 (≈ 0.0668 µM)	0.1 (≈ 0.134 µM)	0.1 (≈ 0.134 µM)		0.1 (≈ 0.134 µM)	0.1 (≈ 0.134 µM)	0.1 (≈ 0.134 µM)	0.5 (≈ 0.668 µM)	0.5 (≈ 0.668 µM)	0.5 (≈ 0.668 µM)	MIC ([9]; NCTC9755, in vitro, Corynebacterium xerosis NCTC 9755, read-out: minimum inhibitory concentrations (MIC)): 0.1 µg/mL (≈ 0.134 µM); MIC [10]: 1 µg/mL (≈ 1.34 µM); MIC ([11]; NCTC10490, in vitro, Pseudomonas aeruginosa NCTC 10490, read-out: minimum inhibitory concentrations (MIC)): 50 µg/mL (≈ 66.8 µM); MIC ([12]; ATCC10031, in vitro, Klebsiella pneumoniae ATCC 10031, read-out: minimum inhibitory concentrations (MIC)): 5 µg/mL (≈ 6.68 µM); MIC [13]: 25 µg/mL (≈ 33.4 µM); MIC [14]: 50 µg/mL (≈ 66.8 µM); MIC (Salmonella panama; in vitro, Salmonella panama): 50 µg/mL (≈ 66.8 µM); LD50 [15]: 74 mg/kg
CC[C@H]1OC(=O)[C@H](C)[C@@H](O[C@H]2C[C@@](C)(OC)[C@@H](O)[C@H](C)O2)[C@H](C)[C@@H](O[C@@H]2O[C@H](C)C[C@H](N(C)C)[C@H]2OC(C)=O)[C@](C)(O)C[C@@H](C)CN(C(C)=O)[C@H](C)[C@@H](O)[C@]1(C)O [Example 5, 2',N-diacetyl-11-aza-10-deoxo-10-dihydroerythromycin A]								6.7							
CCC(=O)O[C@H]1[C@H](O[C@@H]2[C@@H](C)[C@H](O[C@H]3C[C@@](C)(OC)[C@@H](O)[C@H](C)O3)[C@@H](C)C(=O)O[C@H](CC)[C@@](C)(O)[C@H](O)[C@@H](C)N(C(=O)CC)C[C@H](C)C[C@@]2(C)O)O[C@H](C)C[C@@H]1N(C)C [Example 6, 2',N-dipropionyl-11-aza-10-deoxo-10-dihydroerythromycin A]								6.7							
